Measured values: ChEMBL document CHEMBL1201862, “PubChem BioAssay data set” (2004)
Active and inactive are the calls of the source. Cut-off read from the data, not from the text of the source, for most assays here: actives have a measured EC50 and inactives only a lower limit.

What was measured:
[1] = target: T1, Replicative DNA helicase DnaB (Mycobacterium tuberculosis, UniProt P9WMR3); assay: DnaB intein splicing inhibitors, dose response, biochemical, cell-free fluorescence (AID 449749); format: functional
T1 sequence (P9WMR3 whole entry): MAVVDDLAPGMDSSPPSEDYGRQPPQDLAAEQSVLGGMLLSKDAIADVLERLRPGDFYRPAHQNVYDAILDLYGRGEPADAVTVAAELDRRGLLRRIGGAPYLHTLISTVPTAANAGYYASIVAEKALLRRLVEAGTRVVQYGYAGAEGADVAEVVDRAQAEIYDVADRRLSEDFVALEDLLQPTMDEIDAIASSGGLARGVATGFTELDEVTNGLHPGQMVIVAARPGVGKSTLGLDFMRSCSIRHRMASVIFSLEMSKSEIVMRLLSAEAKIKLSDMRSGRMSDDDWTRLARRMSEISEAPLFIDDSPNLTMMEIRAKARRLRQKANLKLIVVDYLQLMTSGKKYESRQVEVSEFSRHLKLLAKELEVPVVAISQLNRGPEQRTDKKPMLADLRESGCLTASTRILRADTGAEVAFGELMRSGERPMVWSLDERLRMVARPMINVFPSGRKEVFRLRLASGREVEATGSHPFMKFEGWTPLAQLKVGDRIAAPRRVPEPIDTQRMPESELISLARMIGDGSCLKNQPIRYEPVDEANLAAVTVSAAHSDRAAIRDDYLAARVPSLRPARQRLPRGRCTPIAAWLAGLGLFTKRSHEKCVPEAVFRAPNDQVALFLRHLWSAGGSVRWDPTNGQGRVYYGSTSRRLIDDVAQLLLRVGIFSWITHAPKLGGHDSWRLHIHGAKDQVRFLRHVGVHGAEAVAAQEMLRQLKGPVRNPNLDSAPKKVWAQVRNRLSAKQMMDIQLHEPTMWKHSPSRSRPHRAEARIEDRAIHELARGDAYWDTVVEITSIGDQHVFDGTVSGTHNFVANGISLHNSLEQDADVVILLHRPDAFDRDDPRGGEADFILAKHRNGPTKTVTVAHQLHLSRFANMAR

[2] = target: T2, Protein RecA (Mycobacterium tuberculosis, UniProt P9WHJ3); assay: Fluorescence Cell-Free Homogeneous Dose Retest to Identify Inhibitors of RecA-Intein Splicing Activity. [Related pubchem assays (depositor defined):AID2097, AID2223, AID489010, AID492950]; format: functional
T2 sequence (P9WHJ3 whole entry): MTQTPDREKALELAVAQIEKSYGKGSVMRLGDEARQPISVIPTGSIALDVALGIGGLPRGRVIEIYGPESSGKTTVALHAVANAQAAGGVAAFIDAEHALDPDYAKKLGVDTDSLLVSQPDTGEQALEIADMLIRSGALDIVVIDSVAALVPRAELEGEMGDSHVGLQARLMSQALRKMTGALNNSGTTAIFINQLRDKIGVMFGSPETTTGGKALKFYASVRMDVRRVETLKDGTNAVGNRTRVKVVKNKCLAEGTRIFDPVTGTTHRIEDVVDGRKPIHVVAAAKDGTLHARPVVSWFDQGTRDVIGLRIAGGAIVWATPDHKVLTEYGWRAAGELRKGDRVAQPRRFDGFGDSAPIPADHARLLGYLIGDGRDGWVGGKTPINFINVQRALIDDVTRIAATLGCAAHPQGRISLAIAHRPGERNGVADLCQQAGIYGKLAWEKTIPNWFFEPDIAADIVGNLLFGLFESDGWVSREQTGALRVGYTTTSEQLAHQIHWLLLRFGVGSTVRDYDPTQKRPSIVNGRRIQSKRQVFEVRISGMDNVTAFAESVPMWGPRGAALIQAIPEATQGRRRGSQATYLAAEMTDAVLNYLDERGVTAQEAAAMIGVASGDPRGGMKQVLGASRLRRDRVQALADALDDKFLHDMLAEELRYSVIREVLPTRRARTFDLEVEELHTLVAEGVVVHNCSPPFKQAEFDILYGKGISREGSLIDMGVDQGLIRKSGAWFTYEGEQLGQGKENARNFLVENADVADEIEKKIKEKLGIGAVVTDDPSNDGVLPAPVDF

[3] = target: Large T antigen (Simian virus 40, UniProt P03070); format: functional, Betapolyomavirus macacae;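 note: Confirmatory-stage PubChem screen for compounds that inhibit SV40 T antigen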
Chain of Large T antigen (P03070 whole entry): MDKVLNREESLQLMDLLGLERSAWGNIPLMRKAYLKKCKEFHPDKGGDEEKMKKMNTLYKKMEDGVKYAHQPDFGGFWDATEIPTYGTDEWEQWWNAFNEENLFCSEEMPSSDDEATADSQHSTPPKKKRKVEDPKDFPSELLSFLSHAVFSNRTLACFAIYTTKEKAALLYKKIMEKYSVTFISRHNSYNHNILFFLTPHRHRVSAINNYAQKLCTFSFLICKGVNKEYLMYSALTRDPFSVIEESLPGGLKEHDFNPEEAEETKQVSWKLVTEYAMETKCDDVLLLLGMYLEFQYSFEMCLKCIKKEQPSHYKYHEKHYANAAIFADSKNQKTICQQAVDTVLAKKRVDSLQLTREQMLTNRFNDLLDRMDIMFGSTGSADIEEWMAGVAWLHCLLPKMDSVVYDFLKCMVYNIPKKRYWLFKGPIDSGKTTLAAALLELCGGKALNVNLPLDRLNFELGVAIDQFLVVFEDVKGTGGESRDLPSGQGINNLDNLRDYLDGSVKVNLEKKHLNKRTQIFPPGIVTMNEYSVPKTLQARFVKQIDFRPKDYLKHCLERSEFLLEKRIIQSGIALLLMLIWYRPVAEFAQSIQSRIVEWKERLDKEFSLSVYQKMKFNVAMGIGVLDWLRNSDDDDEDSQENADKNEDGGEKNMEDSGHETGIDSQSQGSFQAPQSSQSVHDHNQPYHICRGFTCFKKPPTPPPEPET

[4] = luciferase reporter signal suppression in cells – H4 neuroglioma cells, luminescence, dose response (AID 1990); format: functional, cell-based
[5] = Luminescence Cell-Based Dose Response HTS to Identify Inhibitors of 5'UTR Stem-Loop Driven Prion Protein mRNA Translation in H4 Neuroglioblastoma Cells. [Related pubchem assays: 1827 (Project Summary), 1813 (Primary HTS)]; format: functional
[6] = alpha-synuclein stem-loop luciferase translation blockers – H4 neuroglioma cells, luminescence, confirmation (AID 1988); format: functional, cell-based
[7] = viability of uninfected HEp-2 cells – cell-based, HTS, cytotoxicity control for RSV inhibitor project, dose response (AID 2410); format: functional; settings: human respiratory syncytial virus
[8] = target: T3, Streptokinase A (Streptococcus pyogenes serotype M1, UniProt P10520); assay: viability-normalized secreted streptokinase activity reduction – plasminogen activation absorbance, OD405, dose response (AID 1914); format: functional, Streptococcus pyogenes M1 GAS;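 note: secreted streptokinase activity via plasminogen activation per viability signal from cell pellet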
T3 sequence (P10520 whole entry): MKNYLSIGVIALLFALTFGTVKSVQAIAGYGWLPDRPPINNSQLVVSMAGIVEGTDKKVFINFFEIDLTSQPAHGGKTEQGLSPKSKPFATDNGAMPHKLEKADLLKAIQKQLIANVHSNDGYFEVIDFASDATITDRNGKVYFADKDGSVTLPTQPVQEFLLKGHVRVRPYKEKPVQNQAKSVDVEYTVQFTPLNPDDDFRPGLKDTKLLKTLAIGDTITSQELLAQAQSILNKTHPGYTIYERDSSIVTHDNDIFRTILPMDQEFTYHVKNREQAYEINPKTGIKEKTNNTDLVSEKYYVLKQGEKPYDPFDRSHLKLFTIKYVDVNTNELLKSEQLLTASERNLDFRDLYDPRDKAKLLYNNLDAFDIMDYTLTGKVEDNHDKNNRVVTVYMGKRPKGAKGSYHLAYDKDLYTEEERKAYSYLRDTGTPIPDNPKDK

[9] = tested on: Streptococcus; assay: GAS UMAA2166 growth inhibition – luminescence, BacTiterGlo, counter-screen for streptokinase expression inhibitor project, dose response (AID 1915); format: functional, organism-based;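 note: potency for reduction of bacterial viability or growth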
[10] = tested on: Streptococcus sp. 'group A'; assay: Streptococcus pyogenes SK(-)GAS viability under kanamycin – luminescence, BacTiterGlo, confirmation, counter-screen for streptokinase expression inhibitor project, dose response (AID 1900); format: functional, organism-based

SMILES: COC(=O)c1sc(-c2cccs2)cc1NC(=O)/C=C/C(=O)O
- AC50 [1]: 82.9 µM (active)
- EC50 [2]: 15.2 µM (active)

SMILES: Cc1ccc(S(=O)(=O)N[C@@H](CCCCN)C(=O)CCl)cc1
- AC50 [1]: > 120 µM (inactive)
- EC50 [2]: 12.6 µM (active)

SMILES: COc1cccc(-n2c(=O)c3ccccc3n3c(S)nnc23)c1
- IC50 [3]: 19.1 µM (active)

SMILES: C=C(C)CN1CC[C@]23c4c5ccc(O)c4O[C@H]2c2[nH]c4ccccc4c2C[C@@]3(O)C1C5
- EC50 [4]: 13.7 µM (active)
- EC50 [5]: 109 µM (active)
- EC50 [6]: 13.3 µM (active)

SMILES: COc1cc2c(cc1OC)C1(Nc3c-2c(Cc2ccccc2)nn3-c2ccccc2)C(=O)Nc2ccccc21 (stereo not drawn)
- CC50 [7]: > 50 µM (active)
- AC50 [1]: > 380 µM (inactive)
- EC50 [2]: > 380 µM (inactive)

SMILES: COc1ccc(N=C(S)NC(NC(=O)CCl)C(Cl)(Cl)Cl)c([N+](=O)[O-])c1 (stereo not drawn)
- AC50 [1]: 28.5 µM (active)
- EC50 [2]: 3.31 µM (active)

SMILES: Cc1nn(-c2ccccc2)c2c1C1(C(=O)N(C(C)C)c3ccccc31)C(C#N)=C(N)O2 (stereo not drawn)
- AC50 [1]: 4.5 µM (active)
- EC50 [2]: 2.88 µM (active)

SMILES: Nc1c(C(=O)NCc2ccc3c(c2)OCO3)nnn1CC(=O)Nc1ccc(Br)cc1
- EC50 [4]: > 120 µM (not active)
- EC50 [5]: > 120 µM (not active)
- EC50 [6]: 18.3 µM (active)

SMILES: Cc1ccc(NC(=O)c2ccc(S(=O)(=O)N3CCC(C)CC3)cc2)cc1
- EC50 [4]: > 120 µM (not active)
- EC50 [5]: 38.7 µM (active)
- EC50 [6]: 12 µM (active)

SMILES: CC(/C=C1\SC(=S)N(NC(=O)c2cccc(O)c2)C1=O)=C\c1ccccc1
- AC50 [1]: 15 µM (active)
- EC50 [2]: 25.2 µM (active)

SMILES: CCOC(=O)c1c(NC(=O)CSc2nnc(-c3c[nH]c4ccccc34)n2CCOC)sc2c1CCCC2
- AC50 [1]: 20.2 µM (active)
- EC50 [2]: > 380 µM (inactive)

SMILES: CCCOc1ccc(Cc2c(Cl)nc(SC)nc2OC)cc1
- EC50 [8]: 57.2 µM (active)
- EC50 [9]: > 150 µM (not active)

SMILES: O=C(Nc1ccn(Cc2c(F)c(F)cc(F)c2F)n1)c1ccc(COc2ccc(Cl)cc2Cl)o1
- EC50 [10]: 36.3 µM (active)
- EC50 [8]: > 150 µM (not active)
- EC50 [9]: > 150 µM (not active)

SMILES: CN(C)S(=O)(=O)c1ccc(Cl)c(-c2nnc3n2CCCCC3)c1
- EC50 [4]: > 120 µM (not active)
- EC50 [5]: > 120 µM (not active)
- EC50 [6]: > 120 µM (not active)

SMILES: O=C(Cc1csc(NC(=O)Nc2cccc(Cl)c2)n1)NCc1ccccn1
- EC50 [10]: 7.28 µM (active)
- EC50 [8]: > 150 µM (not active)
- EC50 [9]: > 150 µM (not active)

SMILES: CCCc1nn(C)c2c1C(c1ccncc1)C(C#N)=C(N)O2 (stereo not drawn)
- AC50 [1]: 9.7 µM (active)
- EC50 [2]: 3.79 µM (active)

SMILES: Cc1nc2c(c(N3CCOCC3)n1)OCC(=O)N2
- EC50 [4]: 42.6 µM (active)
- EC50 [5]: > 120 µM (not active)
- EC50 [6]: 20.7 µM (active)

SMILES: COc1ccc(Br)cc1S(=O)(=O)Nc1nnc[nH]1
- EC50 [8]: > 150 µM (not active)

SMILES: CCOC(=O)c1c(C)c(C(=O)Nc2ccc(N(C)C)cc2)c(C)n1CC
- IC50 [3]: 15.1 µM (active)

SMILES: COc1cccc(-c2cc(C(F)(F)F)nc(N3CCC(C)CC3)n2)c1
- EC50 [10]: 5.93 µM (active)
- EC50 [8]: 97.6 µM (inconclusive)
- EC50 [9]: 13.2 µM (active)

SMILES: CN(C)c1ccc(NC(=O)CN2CCN(c3ccc(F)cc3)CC2)cc1
- IC50 [3]: 5.83 µM (active)

SMILES: Cc1ccc(NC(=O)CSc2ncc(-c3ccccc3)n2C(=O)c2ccccc2)cc1
- AC50 [1]: 2.56 µM (active)
- EC50 [2]: 1.77 µM (active)

SMILES: NNc1nnc(S)n1N
- AC50 [1]: > 380 µM (inactive)
- EC50 [2]: 86.4 µM (active)

SMILES: Cc1cccc(NCCC#N)c1
- EC50 [4]: > 120 µM (not active)
- EC50 [5]: > 120 µM (not active)
- EC50 [6]: > 120 µM (not active)

SMILES: O=C(Nc1ccc(O)cc1)/C(=C/c1ccco1)NC(=O)c1ccccc1
- IC50 [3]: 11 µM (active)

SMILES: CCOC(=O)c1c(C)n[nH]c1NCc1ccccc1
- EC50 [4]: 26 µM (active)
- EC50 [5]: > 120 µM (not active)
- EC50 [6]: > 120 µM (not active)
